Values of other authors as cited in patent US20110189689A1, “RIBOSWITCHES” (priority 2008, published 2011).

Legend:
[1] = test system: TPP-specific riboswitches in bacteria and plants; settings: via interaction with TPP-specific riboswitches in bacteria and plants
[2] = test system: E. col±165 thiM RNA riboswitch; settings: non-phosphorylated form of the thiamine analog
S. cerevisiae = settings: presumably by binding to enzymes

SMILES	antibiotic effect [1]	affinity to the thiM RNA riboswitch [2]	growth rate of S. cerevisiae (S. cerevisiae)
Cc1ncc(C[n+]2cccc(CCOP(=O)(O)OP(=O)(O)O)c2C)c(N)n1 [PTPP, pyrithiamine pyrophosphate]	exert an antibiotic effect		
Cc1ncc(C[n+]2csc(CCO)c2C)c(=O)[nH]1 [oxythiamine]		strongly reduced affinity	can reduce the growth rate
